Positions count from the first letter of the chain named.
Columns and labels:
Human PPAR-γ = molecular target: T1, Human PPAR-γ (Homo sapiens, UniProt P37231); experiment: transactivation assay (GAL4 chimeric receptor, luciferase) in CV-1 cells; assay type: cell-based; details: for Emax: CV-1, Relative Response % to maximum effects of the positive control drug, read-out: Max % Human PPAR-γ; for EC50: CV-1 cells, GAL4 chimeric receptor, 24 hours
T1 construct: expressed in transfected cells; host or cells: CV-1 (CCL-70, ATCC)
T1 sequence (P37231 238-503 limits assumed): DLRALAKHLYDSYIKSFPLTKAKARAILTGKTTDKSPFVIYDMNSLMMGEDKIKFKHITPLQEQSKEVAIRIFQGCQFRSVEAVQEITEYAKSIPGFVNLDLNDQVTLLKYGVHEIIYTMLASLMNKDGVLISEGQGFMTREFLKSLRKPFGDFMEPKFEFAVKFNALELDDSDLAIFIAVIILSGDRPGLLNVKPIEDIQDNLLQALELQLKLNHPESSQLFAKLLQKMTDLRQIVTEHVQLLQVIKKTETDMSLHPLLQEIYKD
Experimental: (§1) Following induction of transient intracellular expression of PPAR-α and -γ, an ability of the inventive compounds to induce transactivation of PPARs via activation of each PPAR was evaluated as an efficacy of the compound (transactivation assay).
(§2) For this assay, the African green monkey kidney cell line CV-1 (CCL-70, ATCC) was used as a test cell line, and PPAR-α and -γ were murine- and human-derived PPARs. Samples used were compounds prepared in Examples 19, 21, 23, 25, 26, 27, 31, 33, 34, 36, 38, 40, 42, 43 and 50. As a positive control drug, 3-4-[2-(2-phenyl-4-methyl-1,3-oxazole)ethyloxy]phenyl-(2S)-[(1-methyl-3-oxo-3-phenyl)propenyl]aminopropionic acid was used that is a PPAR-α or -γ agonist which was once under development and whose clinical trials and studies were suspended at phase III. A chimeric receptor was adopted to circumvent the probable interference due to endogenous receptor activation (Jian-Shen Q. et al., Mol Cell Biol (1995) 15(3):1817-1825). The chimeric receptor was constructed as a fusion of a PPAR-α or -γ ligand-binding domain with a DNA-binding domain of GAL4 which is a yeast transactivator.
(§3) The CV-1 cells were transiently transfected with each of chimeric receptor-expressing DNA constructs and each of DNA constructs comprising 5 copies of the GAL4 DNA-binding domain and capable of inducing expression of firefly luciferase or Renilla luciferase using a Lipofectamine Plus reagent (Invitrogen, USA). After transfection for 3 hours, the culture media were replaced with DMEM containing the above samples and 10% fetal bovine serum. 24 hours later, the firefly luciferase activity and Renilla luciferase activity were continuously assayed while adding an equal amount of a dual luciferase assay reagent (Promega, USA) to the cell-containing media. The transfection efficiency was normalized against Renilla luciferase activity (Motomura W. et al., Int J Cancer (2004) 108(1):41-6). The PPAR-α and -γ activity was determined by calculating Relative Response % to maximum effects of the positive control drug, and conducting multiple dose evaluation of the inventive compounds to calculate EC50, which is the concentration of a drug which produces 50% activation relative to maximum effects of the inventive compounds, by nonlinear regression analysis.

Mouse PPAR-α = molecular target: T2, Mouse PPAR-α (Mus musculus, UniProt P23204); experiment: as above; assay type: cell-based; details: for Emax: CV-1, Relative Response % to maximum effects of the positive control drug, read-out: Max % Mouse PPAR-α; for EC50: CV-1 cells, GAL4 chimeric receptor, 24 hours
T2 construct: expressed in transfected cells; host or cells: CV-1 (CCL-70, ATCC)
T2 sequence (P23204 239-466 limits assumed): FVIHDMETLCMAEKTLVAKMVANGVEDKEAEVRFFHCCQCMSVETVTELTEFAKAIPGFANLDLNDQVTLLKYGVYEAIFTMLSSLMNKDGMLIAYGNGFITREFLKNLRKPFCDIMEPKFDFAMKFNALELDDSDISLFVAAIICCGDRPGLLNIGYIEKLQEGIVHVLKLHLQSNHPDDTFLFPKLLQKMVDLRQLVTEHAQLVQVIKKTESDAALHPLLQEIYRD
Experimental: as §1, §2, §3

Human PPAR-α = molecular target: T3, Human PPAR-α (Homo sapiens, UniProt Q07869); experiment: as above; assay type: cell-based; details: for Emax: CV-1, Relative Response % to maximum effects of the positive control drug, read-out: Max % Human PPAR-α; for EC50: CV-1 cells, GAL4 chimeric receptor, 24 hours
T3 construct: expressed in transfected cells; host or cells: CV-1 (CCL-70, ATCC)
T3 sequence (Q07869 239-466 limits assumed): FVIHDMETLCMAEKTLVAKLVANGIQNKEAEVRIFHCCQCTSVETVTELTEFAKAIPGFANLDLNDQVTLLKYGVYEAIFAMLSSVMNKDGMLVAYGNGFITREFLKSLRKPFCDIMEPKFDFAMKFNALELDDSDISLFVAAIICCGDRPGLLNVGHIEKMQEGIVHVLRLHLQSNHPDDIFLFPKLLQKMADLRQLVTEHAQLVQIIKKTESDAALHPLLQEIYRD
Experimental: as §1, §2, §3

Mouse PPAR-γ = molecular target: T4, Mouse PPAR-γ (Mus musculus, UniProt P37238); experiment: as above; assay type: cell-based; details: for Emax: CV-1, Relative Response % to maximum effects of the positive control drug, read-out: Max % Mouse PPAR-γ; for EC50: CV-1 cells, GAL4 chimeric receptor, 24 hours
T4 construct: expressed in transfected cells; host or cells: CV-1 (CCL-70, ATCC)
T4 sequence (P37238 238-503 limits assumed): T1 sequence (P37231 238-503 limits assumed) with S93N, V98I, S146N, L226V, Q245H
Experimental: as §1, §2, §3

[1] = tested on: diabetic male mice (db/db mice); experiment: blood glucose-lowering effects in mice with hyperglycemic diabetes; assay type: in vivo; details: for % Inhibition vs. Control / Blood glucose D5: oral once a day for 5 days; for Blood glucose D0: oral
Experimental: Effects of PPAR compounds on a blood glucose level were evaluated in 7-week-old diabetic male mice (db/db mice). Blood was collected from caudal veins of the diabetic animals to which the drug was administered once a day for 5 consecutive days, and the blood glucose level was then measured with a blood glucose test meter (ACCU CHEK Active®).

| Compound | Emax (Human PPAR-γ) [%] | EC50 (Human PPAR-γ) [nM] | Emax (Mouse PPAR-α) [%] | EC50 (Mouse PPAR-α) [nM] | Emax (Human PPAR-α) [%] | EC50 (Human PPAR-α) [nM] | Emax (Mouse PPAR-γ) [%] | EC50 (Mouse PPAR-γ) [nM] | % Inhibition vs. Control ([1]; 1 mg/kg) [%] | Blood glucose D5 ([1]; 1 mg/kg) [mg/dL] | % Inhibition vs. Control ([1]; 3 mg/kg) [%] | Blood glucose D5 ([1]; 3 mg/kg) [mg/dL] | % Inhibition vs. Control ([1]; 10 mg/kg) [%] | Blood glucose D5 ([1]; 10 mg/kg) [mg/dL] | Blood glucose D0 ([1]; 1 mg/kg) [mg/dL] | Blood glucose D0 ([1]; 3 mg/kg) [mg/dL] | Blood glucose D0 ([1]; 10 mg/kg) [mg/dL] |
| --- | --- | --- | --- | --- | --- | --- | --- | --- | --- | --- | --- | --- | --- | --- | --- | --- | --- |
| CCO[C@@H](Cc1ccc(OCc2sc(-c3ccc(-c4cc(C)no4)cc3)nc2C)cc1)C(=O)O [Example 47, (S)-2-ethoxy-3-(4-((4-methyl-2-(4-(3-methylisoxazol-5-yl)phenyl)thiazol-5-yl)methoxy)phenyl)propionic acid] | 50 | 82 | 71 | 560 | 60 | 1410 | 70 | 208 | – | – | – | – | – | – | – | – | – |
| CCO[C@@H](Cc1ccc(OCc2sc(-c3ccc(-c4nc(C)c(C)o4)cc3)cc2C)cc1)C(=O)O [Example 34, (S)-3-(4-((5-(4-(4,5-dimethyloxazol-2-yl)phenyl)-3-methylthiophen-2-yl)methoxy)phenyl)-2-ethoxypropionic acid] | 75 | 18 | 31 | 3440 | 31 | 476 | 81 | 176 | – | – | – | – | – | – | – | – | – |
| CCO[C@@H](Cc1ccc(OCc2sc(-c3ccc(C4=NCCCO4)cc3)cc2C)cc1)C(=O)O [Example 19, (S)-3-(4-((5-(4-(5,6-dihydro-4H-1,3-oxazin-2-yl)phenyl)-3-methylthiophen-2-yl)methoxy)phenyl)-2-ethoxypropionic acid] | 43 | 45 | 19 | 6830 | 44 | 6570 | 43 | 281 | – | – | – | – | – | – | – | – | – |
| CCO[C@@H](Cc1ccc(OCc2sc(-c3ccc(-c4cc(C(C)(C)C)on4)cc3)cc2C)cc1)C(=O)O [Example 48, (S)-3-(4-((5-(4-(5-tert-butylisoxazol-3-yl)phenyl)-3-methylthiophen-2-yl)methoxy)phenyl)-2-ethoxypropionic acid] | 27 | 7 | 25 | 12100 | 22 | 2830 | 24 | 31 | 24 | 375 ± 25 | 30 | 347 ± 70 | 43 | 280 ± 40 | 452 ± 22 | 453 ± 20 | 453 ± 43 |
| CCO[C@@H](Cc1ccc(OCc2sc(-c3ccc(C(=O)N4CCOCC4)cc3)cc2C)cc1)C(=O)O [Example 17, (S)-2-ethoxy-3-(4-((3-methyl-5-(4-(morpholino-4-carbonyl)phenyl)thiophen-2-yl)methoxy)phenyl)propionic acid] | 47 | 1270 | 11 | – | 12 | 3210 | 117 | 14500 | – | – | – | – | – | – | – | – | – |
| CCO[C@@H](Cc1ccc(OCc2sc(-c3ccc(-c4csnn4)cc3)cc2C)cc1)C(=O)O [Example 24, (S)-3-(4-((5-(4-(1,2,3-thiadiazol-4-yl)phenyl)-3-methylthiophen-2-yl)methoxy)phenyl)-2-ethoxypropionic acid] | 45 | 32 | 23 | 4930 | 19 | 1400 | 38 | 84 | – | – | – | – | – | – | – | – | – |
| CCO[C@@H](Cc1ccc(OCc2sc(-c3ccc(-c4nnn(C(C)C)n4)cc3)cc2C)cc1)C(=O)O [Example 31, (S)-2-ethoxy-3-(4-((5-(4-(2-isopropyl-2H-tetrazol-5-yl)phenyl)-3-methylthiophen-2-yl)methoxy)phenyl)propionic acid] | 25 | 100 | 10 | 3090 | 21 | 478 | 23 | 57 | – | – | – | – | – | – | – | – | – |
| CCO[C@@H](Cc1ccc(OCc2sc(-c3ccc(-c4noc(C)n4)cc3)cc2C)cc1)C(=O)O [Example 25, (S)-2-ethoxy-3-(4-((3-methyl-5-(4-(5-methyl-1,2,4-oxadiazol-3-yl)phenyl)thiophen-2-yl)methoxy)phenyl)propionic acid] | 48 | 95 | 35 | 443 | 63 | 5240 | 48 | 295 | – | – | – | – | – | – | – | – | – |
| CCO[C@@H](Cc1ccc(OCc2sc(-c3ccc(-c4nnn(C)n4)cc3)cc2C)cc1)C(=O)O [Example 29, (S)-2-ethoxy-3-(4-((3-methyl-5-(4-(2-methyl-2H-tetrazol-5-yl)phenyl)thiophen-2-yl)methoxy)phenyl)propionic acid] | 66 | 49 | 31 | 381 | 52 | 1230 | 48 | 118 | – | – | – | – | – | – | – | – | – |
| CCO[C@@H](Cc1ccc(OCc2sc(-c3ccc(-c4cc(C(=O)NC)no4)cc3)cc2C)cc1)C(=O)O [Example 38, (S)-2-ethoxy-3-(4-((3-methyl-5-(4-(3-(methylcarbamoyl)isoxazol-5-yl)phenyl)thiophen-2-yl)methoxy)phenyl)propionic acid] | 68 | 100 | 49 | 5780 | 51 | 5140 | 81 | 180 | – | – | – | – | – | – | – | – | – |
| CCO[C@@H](Cc1ccc(OCc2sc(-c3ccc(-c4cc(COC)no4)cc3)cc2C)cc1)C(=O)O [Example 40, (S)-2-ethoxy-3-(4-((5-(4-(3-(methoxymethyl)isoxazol-5-yl)phenyl)-3-methylthiophen-2-yl)methoxy)phenyl)propionic acid] | 31 | 19 | 5 | – | 7 | – | 30 | 109 | – | – | – | – | – | – | – | – | – |
| CCO[C@@H](Cc1ccc(OCc2sc(-c3ccc(C4=Nc5ccccc5OC4)cc3)cc2C)cc1)C(=O)O [Example 23, (S)-3-(4-((5-(4-(2H-benzo[b][1,4]oxazin-3-yl)phenyl)-3-methylthiophen-2-yl)methoxy)phenyl)-2-ethoxypropionic acid] | 83 | 65 | 43 | 105 | 44 | 2010 | 67 | 165 | – | – | – | – | – | – | – | – | – |
